From PMC9920413, “New Bicyclic Pyridine-Based Hybrids Linked to the 1,2,3-Triazole Unit: Synthesis via Click Reaction and Evaluation of Neurotropic Activity and Molecular Docking” (Molecules, 2023)

Key:
rats [1] = experiment: Open field test; type: in vivo; details: 50 mg/kg i.p.; for Cells Examination, amount (absolute data during 5 min): control 2.4 ± 0.67; for Vertical Displacement, amount (absolute data during 5 min): control 7.0 ± 2.14; for Horizontal Displacement, amount (absolute data during 5 min): control 21.6 ± 2.25
Description: Open field test. The research-motor behavior of rats was studied on a modified “open field” model. For this purpose, an installation was used, the bottom of which is divided into squares with holes (cells). Experiments were performed in the daytime with natural light. Within 5 min of the experiment, the indicators of sedative and activating behavior were determined, namely the number of horizontal movements, standing on the hind legs (vertical movements), and sniffing of the cells. The number of animals on this model was eight for each compound, control, and reference drug.

[2] = test system: pentylenetetrazole (PTZ)-induced convulsions; experiment: Antagonism to pentylenetetrazole (PTZ) convulsions; type: in vivo; details: for ED50: Mus musculus, mice, i.p. 45 min before PTZ 90 mg/kg s.c., confidence limits in brackets, p = 0.05, read-out: ED50 (by PTZ antagonism); for TI: therapeutic index TI = LD50/ED50
Description: (§1) The study of the anticonvulsant activity of hybrids 7a–u was assessed by evaluating the antagonism to pentylenetetrazole (PTZ), thiosemicarbazide convulsive seizures, and maximal electroshock-induced seizures (MES). The PTZ-induced test is considered an experimental model for the clonic component of epilepsy seizures and the prognostic anxiolytic activity of the compounds. PTZ is a common convulsive agent used in animal models to investigate the mechanisms of seizures. The model of thiosemicarbazide (TSC) seizures (affecting the exchange of GABA) causes clonic seizures similar to pentylenetetrazole ones. The MES test is used as an animal model for the generalization of tonic seizures in epilepsy. The neurotoxicity and side effects of the compounds (movement coordination disorder, myorelaxation, and ataxia) were also studied on mice with the “rotating rod”[29] test.
The anticonvulsant effect of the newly synthesized compounds was investigated by tests comprising pentylenetetrazole, thiosemicarbazide convulsions, and maximal electroshock (MES). Outbred mice (weight 18–22 g) were used for the study. […] Each animal is placed into an individual plastic cage for observation lasting 1 h. Seizures and clonic convulsions were recorded. […] The control animals were administered as an emulsifier. Every dose of each test compound was studied in six animals.
(§2) Adverse neurotoxic (muscle relaxant) effects of compounds were studied at doses of 50 to 500 mg/kg when administered intraperitoneally, as well as reference drugs in effect at anticonvulsant doses. Myorelaxation was investigated with the test of a “rotating rod” in mice. To this end, mice were planted on a metal rod with a corrugated rubber coating, which rotated at a speed of 5 revolutions per minute. The number of animals that cnot stay on it for 2 min was determined. To determine the ED50, neurotoxic TD50, and LD50, the statistical method of penetration by Litchfield and Wilcoxon was used.

[3] = Rotating rod test (neurotoxicity, myorelaxation); type: in vivo; details: outbred, mouse, in vivo, ip, mice, myorelaxation in 50% of animals
Description: as §1, §2

mouse = experiment: Elevated plus maze (EPM) test; type: in vivo; details: 50 mg/kg i.p., 5 min; for Time Spent in the Open Arms: control 2.6 ± 1.6; for Number of Entries into the Closed Arms: control 9.4 ± 1.6; for Time Spent in the Center: control 28.2 ± 3.12; for Time Spent in Closed Arms: control 269.2 ± 10.4
Description: Elevated plus maze—EPM test. Anti-anxiety and sedative effects were studied on mouse a model of the “elevated plus maze”. The labyrinth is a cruciform machine raised above the floor, with a pair of open and closed sleeves opposed to each other. Normal animals prefer to spend most of their time in the closed (dark) sleeves of the labyrinth. The anxiolytic effect of the compounds was estimated by the increase in the number of entries into open (light) sleeves and the time spent in them without increasing the total motor activity. This records the time spent in the closed sleeve and the number of attempts to enter the installation center. In the above model, the test compounds and the reference drug were injected intraperitoneally before the experiments. The control animals were administered as an emulsifier. Results were processed statistically (p < 0.05).

in vivo = details: outbred, mouse, in vivo; mice, dead animals after 24 h
Description: as §2

mice = experiment: Forced swimming test; details: 50 mg/kg, 6 min; for Total Time of Immobilization: control 42.0 ± 7.24; for Total Time of Active Swimming: control 318.0 ± 8.36;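 on all read-outs here: mice made to swim in a water-filled glass vessel under natural light, with durations of active swimming and immobility recorded across the 6 min session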
Description: Forced swimming test. To assess “despair and depression”, the “compelling swimming” model was used. Experimental animals were forced to swim in a glass container (height 22 cm, diameter 14 cm), filled 1/3 with water. […] The latent period of immobilization, the total duration of active swimming and immobilization are fixed at 6 min (the experiments were conducted under natural light).

[4] = test system: thiosemicarbazide (TSC)-induced convulsions; experiment: Thiosemicarbazide (TSC) seizures; type: in vivo, mice; details: mice; for response vs control in vivo at 100 mg/kg: Mus musculus, ip, compound 100 mg/kg i.p., relative to control = 1.0, read-out: Latency of Convulsions, Induced by TSC, I (index of latent period of TSC seizures); for Latency of Convulsions, Induced by TSC, M ± M: compound 100 mg/kg i.p. 45 min before TSC 18 mg/kg s.c.
Description: as §1
Thiosemicarbazide, an antimetabolite of GABA inhibitor (glutamic acid decarboxylase) in the brain, is administered subcutaneously to mice at a dose of 18 mg/kg as a 0.5% solution, which causes clonic convulsions in animals. Anti-thiosemicarbazide activity was evaluated based on the latency time of the onset of seizures. Compounds were administered intraperitoneally at doses of 100 mg/kg in suspension with carboxymethylcellulose and Tween-80 45 min before administration of thiosemicarbazide.

rats [5] = experiment: Electroshock retrograde amnesia, conditioned response of passive avoidance (CRPA); type: in vivo; details: 1000 mg/kg, study for 5 min
Description: Test for learning and memory. The antiamnesic properties of the compounds were studied using an electroshock amnesia model modified by J. Bures, O. Buresova. In rats, a conditioned passive avoidance reaction (CRPA) to a dark-light setting was developed, while the training of the animals with CRPA was recorded. The residence times in the light and dark compartments were recorded for 5 min (300 s). Then, in the dark compartment, the animal received a single current shock (0.4 mA) through the electrode floor (training). To obtain amnesia, a maximum electroconvulsive seizure is induced in animals (conducting a maximum electric current of 50 Hz for 0.2 s through corneal electrodes). Conducting an electric shock immediately after training causes the erasure of the memory trace. The test for reproduction is carried out 24 h after training—after the development of CRPA. During this period, the control animals forget the training and prefer to be in the dark part of the chamber. An increase in the time spent by rats in the light compartment compared to the control on the second day indicates the presence of antiamnestic properties of the compounds.

SMILES	Cells Examination, amount (absolute data during 5 min) (rats [1])	Vertical Displacement, amount (absolute data during 5 min) (rats [1])	Horizontal Displacement, amount (absolute data during 5 min) (rats [1])	ED50 [2] [mg/kg]	TI [2]	TD50 at 2 min [3] [mg/kg]	Time Spent in the Open Arms (mouse) [s]	Number of Entries into the Closed Arms (mouse)	Time Spent in the Center (mouse) [s]	Time Spent in Closed Arms (mouse) [s]	LD50 at 24 h (in vivo) [mg/kg]	Total Time of Immobilization (mice) [s]	Total Time of Active Swimming (mice) [s]	response vs control in vivo at 100 mg/kg [4] [%]	Latency of Convulsions, Induced by TSC, M ± M [4] [min]	The Time Spent in the Light Chamber When Playing CRPA + MESH after 24 h, Second Day (rats [5]) [s]	The Time Spent in the Light Chamber during the Training of the CRPA, First Day (rats [5]) [s]
CCCc1nc(N2CCN(C(=O)Cn3cc(COc4nc(C(C)C)c5c(c4C#N)CCC5)nn3)CC2)c(C#N)c2c1COC(C)(C)C2 [7c, 6-{4-[(4-{[(4-Cyano-1-isopropyl-6,7-dihydro-5H-cyclopenta[c]pyridin-3-yl)oxy]methyl}-1H-1,2,3-triazol-1-yl)acetyl]piperazin-1-yl}-3,3-dimethyl-8-propyl-3,4-dihydro-1H-pyrano [3,4-c]pyridine-5-carbonitrile]	4.2 ± 0.56	6.2 ± 1.03	57.2 ± 12.85	35	18.6	> 500	10.6 ± 2.1	2.6 ± 1.4	45.4 ± 4.7	244.0 ± 10.67	650	10.0 ± 4.1	350.0 ± 11.62	250	25.0 ± 4.1		
CCc1nc(N2CCN(C(=O)Cn3cc(COc4nc(C(C)C)c5c(c4C#N)CCCC5)nn3)CC2)c(C#N)c2c1COC(C)(C)C2 [7h]	6.8 ± 3.12	6.0 ± 0.89	63.8 ± 14.02	27	26.7	> 500	30.0 ± 2.4	4.8 ± 1.34	28.4 ± 2.38	246.6 ± 21.9	720	2.0 ± 0.8	358.0 ± 8.2	150	15.2 ± 1.2		
CCCc1nc(N2CCN(C(=O)Cn3cc(COc4nc(C)c5c(c4C#N)CC(C)(C)OC5)nn3)CC2)c(C#N)c2c1COC(C)(C)C2 [7o]	8.6 ± 3.25	9.6 ± 3.89	73.0 ± 13.37	28	28.6	> 500	10.0 ± 2.78	5.8 ± 1.03	61.0 ± 3.68	229.0 ± 11.2	800	2.0 ± 0.4	358.0 ± 12.0	304	30.4 ± 1.1		
CCc1nc(OCc2cn(CC(=O)N3CCN(c4nc(CC)c5c(c4C#N)CC(C)(C)OC5)CC3)nn2)c(C#N)c2c1COC(C)(C)C2 [7q, 6-{4-[(4-{[(5-Cyano-8-ethyl-3,3-dimethyl-3,4-dihydro-1H-pyrano [3,4-c]pyridin-6-yl)oxy]methyl}-1H-1,2,3-triazol-1-yl)acetyl]piperazin-1-yl}-8-ethyl-3,3-dimethyl-3,4-dihydro-1H-pyrano [3,4-c]pyridine-5-carbonitrile]	7.4 ± 2.42	8.8 ± 1.61	60.2 ± 4.61	42	18.8	> 500	24.0 ± 2.5	5.0 ± 2.19	50.8 ± 3.4	225.2 ± 13.87	790	24.0 ± 2.9	336.0 ± 25.3	220	22.0 ± 2.2		
CCCc1nc(N2CCN(C(=O)Cn3cc(COc4nc(CC)c5c(c4C#N)CC(C)(C)OC5)nn3)CC2)c(C#N)c2c1COC(C)(C)C2 [7r, 6-[(1-{2-[4-(5-Cyano-3,3-dimethyl-8-propyl-3,4-dihydro-1H-pyrano [3,4-c]pyridin-6-yl)piperazin-1-yl]-2-oxoethyl}-1H-1,2,3-triazol-4-yl)methoxy]-8-ethyl-3,3-dimethyl-3,4-dihydro-1H-pyrano [3,4-c]pyridine-5-carbonitrile]	4.4 ± 1.89	2.2 ± 1.36	30.0 ± 2.48	26	27.3	> 500	7.0 ± 2.59	3.4 ± 1.59	83.0 ± 5.1	210.4 ± 10.3	710	36.0 ± 5.55	324.0 ± 18.55	394	39.4 ± 1.11		
CCCc1nc(OCc2cn(CC(=O)N3CCN(c4nc(CCC)c5c(c4C#N)CC(C)(C)OC5)CC3)nn2)c(C#N)c2c1COC(C)(C)C2 [7u, 6-{4-[(4-{[(5-Cyano-3,3-dimethyl-8-propyl-3,4-dihydro-1H-pyrano [3,4-c]pyridin-6-yl)oxy]methyl}-1H-1,2,3-triazol-1-yl)acetyl]piperazin-1-yl}-3,3-dimethyl-8-propyl-3,4-dihydro-1H-pyrano [3,4-c]pyridine-5-carbonitrile]	2.2 ± 1.03	3.6 ± 0.67	41.8 ± 6.12	32	21.3	> 500	20.0 ± 3.12	4.4 ± 2.1	36.2 ± 2.38	243.8 ± 20.7	680	84.0 ± 12.5	276.0 ± 26.0	438	43.8 ± 1.03		
NC(=O)CN1CCCC1=O [Piracetam, piracetam, reference compound]																243.7 ± 8.4	158.0 ± 5.9
